From patent US9006225B2, “Stable pharmaceutical composition” (Asahi Kasei Pharma Corporation, priority 2008, dated 2015) come the findings set out here.

The structures appear in SMILES notation.

What all share (assay type): physicochemical
Data set [1] can be described thus: Coloring of compound solutions with glucose after storage (Experimental Example 4). The note with it: for Degree of coloring, Sample solution after storage at 60° C. for 6 days: 10 mg compound in methanol 2 mL + 1 mL glucose aqueous solution 10 mg/mL; for Degree of coloring, Control solution after storage at 60° C. for 6 days: 10 mg compound in methanol 2 mL + 1 mL purified water (no glucose). On the set-up: key: −: No coloring; +: Coloring; ++: Marked coloring. The method, then: The compounds of Preparation Examples 2 to 5 and 7 were each weighed in an amount of 10 mg in a stoppered test tube, added with methanol (2 mL), dissolved in the methanol, and then further added with a glucose aqueous solution (1 mL) of 10 mg/mL concentration to prepare sample solutions. Separately, the compounds of Preparation Examples 2 to 5 and 7 were each weighed in an amount of 10 mg in a stoppered test tube, added with methanol (2 mL), dissolved in the methanol, and then further added with purified water (1 mL) to prepare control solutions. The prepared sample solutions and the control solutions were stored in an incubator (Minijet Oven, Toyama Sangyo) at 60° C. for 6 days.

Data set [2] can be described thus: Solubility of crystal forms in an aqueous solvent.
A short description of data set [3]: Coloring of solutions of the compound of Preparation Example 7 with additives after storage (Experimental Example 5). The arrangement: key to Degree of coloring, Sample solution after storage at 60° C. for 6 days / Degree of coloring, Control solution after storage at 60° C. for 6 days: −: No coloring; +: Coloring; ++: Marked coloring. The following applies: for Degree of coloring, Sample solution after storage at 60° C. for 6 days: 10 mg compound of Preparation Example 7 in methanol 2 mL + 1 mL of 10 mg/mL aqueous solution of the additive; for Coloring of the solution of the compound of Preparation Example 7 by the influence of the additive: 60° C. for 6 days, methanol/water; for Degree of coloring, Control solution after storage at 60° C. for 6 days: control: 10 mg compound of Preparation Example 7 in methanol 2 mL + 1 mL purified water, no additive. The method, then:
The compound obtained according to the method of Preparation Example 7 was weighed in an amount of 10 mg in a stoppered test tube, added with methanol (2 mL) for dissolution, and then further added with a 10 mg/mL aqueous solution of each of additives shown in Table 5 (1 mL) to prepare a sample solution. Separately, the compound obtained according to the method of Preparation Example 7 was weighed in an amount of 10 mg in a stoppered test tube, added with methanol (2 mL) for dissolution, and then further added with purified water (1 mL) to prepare a control solution. The prepared sample solutions and the control solution were stored in an incubator (Minijet Oven, Toyama Sangyo) at 60° C. for 6 days.

In the case of `Cc1ccc(CCOc2c(N)cc(CCC(=O)O)cc2-c2ccc3ccccc3c2)cc1` [Compound of Preparation Example 2, 3-{3-amino-4-[2-(4-methylphenyl)ethyloxy]-5-(naphthalen-2-yl)phenyl}propionic acid], in data set [1], the “Degree of coloring, Sample solution after storage at 60° C. for 6 days” value (shortened to “Degree of coloring, Sample solution”) was “+” and the “Degree of coloring, Control solution after storage at 60° C. for 6 days” value (shortened to “Degree of coloring, Control solution”) is reported as “−”.
The like results for `Nc1cc(CCC(=O)O)cc(-c2ccc3[nH]ccc3c2)c1OCC1CCCC1` [Compound of Preparation Example 3, 3-[3-amino-4-cyclopentylmethyloxy-5-(1H-indol-5-yl)phenyl]propionic acid] were, in that order, “++” and “−”.
For the compound `Cn1ccc2cc(-c3cc(CCC(=O)O)cc(N)c3OCC3CCCC3)ccc21` [Compound of Preparation Example 4, 3-[3-amino-4-cyclopentylmethyloxy-5-(1-methyl-1H-indol-5-yl)phenyl]propionic acid], in data set [1], the “Degree of coloring, Sample solution” value is recorded as “++” and the “Degree of coloring, Control solution” value was “−”.
The like results for `Nc1cc(CCC(=O)O)cc(-c2ccc3[nH]ncc3c2)c1OC1Cc2ccccc2C1` [Compound of Preparation Example 5, 3-[3-amino-4-(indan-2-yloxy)-5-(1H-indazol-5-yl)phenyl]propionic acid] were, in that order, “+” and “−”.
Regarding `Cn1ncc2cc(-c3cc(CCC(=O)O)cc(N)c3OC3Cc4ccccc4C3)ccc21` [Compound of Preparation Example 7, 3-[3-amino-4-(indan-2-yloxy)-5-(1-methyl-1H-indazol-5-yl)phenyl]propionic acid], in data set [1], the “Degree of coloring, Sample solution” value is “++” and the “Degree of coloring, Control solution” value was “−”. In addition, the “Solubility in an aqueous solvent compared with the type B crystals” value in data set [2] was “higher”.
On to `OC[C@@H](O)[C@@H](O)[C@H](O)[C@H](O)CO` [D-Mannitol], for which, in data set [3], the “Degree of coloring, Sample solution” value was “−”; the “Coloring of the solution of the compound of Preparation Example 7 by the influence of the additive” value (“Coloring of the solution … of the additive” below) is reported as “no coloring”; the “Degree of coloring, Control solution” value is reported as “−”.
For `OC[C@@H](O)[C@@H](O)CO` [Erythritol], in data set [3], the “Degree of coloring, Sample solution” value is on record as “−”; the “Coloring of the solution … of the additive” value is recorded as “no coloring”; the “Degree of coloring, Control solution” value was “−”.
With `O=C(CO)[C@@H](O)[C@H](O)[C@H](O)CO` [Fructose], in data set [3], the “Degree of coloring, Sample solution” value is reported as “+”; the “Coloring of the solution … of the additive” value is listed as “coloring”; the “Degree of coloring, Control solution” value is given as “−”.
For `OC[C@H]1O[C@@H](O[C@H]2[C@H](O)[C@@H](O)C(O)O[C@@H]2CO)[C@H](O)[C@@H](O)[C@H]1O` (some centres unmarked) [Lactose], in data set [3], the “Degree of coloring, Sample solution” value is reported as “+”; the “Coloring of the solution … of the additive” value was “coloring”; the “Degree of coloring, Control solution” value was “−”.
On to `OC[C@H]1O[C@H](O[C@H]2[C@H](O)[C@@H](O)[C@H](O)O[C@@H]2CO)[C@H](O)[C@@H](O)[C@@H]1O` [Maltose], for which, in data set [3], the “Degree of coloring, Sample solution” value is listed as “+”; the “Coloring of the solution … of the additive” value is on record as “coloring”; the “Degree of coloring, Control solution” value is “−”.
For `OC[C@H]1O[C@@](CO)(O[C@H]2O[C@H](CO)[C@@H](O)[C@H](O)[C@H]2O)[C@@H](O)[C@@H]1O` [Sucrose], in data set [3], the “Degree of coloring, Sample solution” value was “−”; the “Coloring of the solution … of the additive” value was “no coloring”; the “Degree of coloring, Control solution” value is given as “−”.
For the compound `OC[C@H]1O[C@H](O[C@H]2O[C@H](CO)[C@@H](O)[C@H](O)[C@H]2O)[C@H](O)[C@@H](O)[C@@H]1O` [Trehalose], in data set [3], the “Degree of coloring, Sample solution” value was “−”; the “Coloring of the solution … of the additive” value is “no coloring”; the “Degree of coloring, Control solution” value is reported as “−”.
For the compound `O=C[C@H](O)[C@@H](O)[C@H](O)CO` [Xylose], in data set [3], the “Degree of coloring, Sample solution” value is recorded as “++”; the “Coloring of the solution … of the additive” value is reported as “coloring”; the “Degree of coloring, Control solution” value is recorded as “−”.
